According to patent US8685372B2, “Peptides and aptamers for targeting of neuron or nerves” (The Regents of the University of California, priority 2009, dated 2014):
Residues, ends and D or L forms follow the SMILES beside them. *: point of attachment. 5FAM = O=C1OC2(c3ccc(O)cc3Oc3cc(O)ccc32)c2ccc(C(=O)*)cc21

Key:
[1] = Generalized toxicity: activity, behavior and weight gain; assay type: in vivo, mice; conditions: single intravenous injection of 15-5,000 nmoles, up to 8 weeks of monitoring
Procedure: To evaluate generalized toxicity following peptide administration, the generalized activity, behavior and weight gain of mice after a single intravenous injection of 15-5,000 nmoles of SEQ ID NO:25 was studied.
Female 8 week-old SKH1 mice (average weight 25 g) were treated with varying amounts of SEQ ID NO:25 ranging from 15-5,000 nmoles. Generalized activity, behavior and weight gain were evaluated following single intravenous injection of 15-5,000 nmoles of […] on a daily basis for 3 clays following injection. Thereafter, the mice were monitored three times per week for 8 weeks.

sciatic nerve [2] = assay: Effect of nerve injury (crush, devascularization) on labeling; assay type: in vivo, mice
Procedure: The ability of peptides to label peripheral nerves following nerve crush injury was evaluated in mice using SEQ ID NO:25. […] (Occasionally, nerve labeling immediately at the site of injury was slightly diminished compared to nerve labeling several centimeters away from the site of injury (FIG. 6D), but this observation was highly variable (FIGS. 6B,F) and not statistically significant (FIG. 6I)).
Wild type mice were anesthetized and the left sciatic nerve exposed and crushed with microforceps for 3-5 seconds. Muscular contractions during the crush after immediately afterwards were monitored to ensure uniformity of the injury. The skin incision was then closed and mice returned to their cages to recover. At varying times after crush injury, intravenous SEQ ID NO:25 (150 nmoles) was administered. Two to three hours after intravenous SEQ ID NO:25 treatment, the mice were anesthetized, bilateral sciatic nerves exposed and quantitative fluorescence microscopy was used to measure nerve fluorescence. Nerve and adjacent muscle fluorescence were measured using Image J software by measuring standardized boxed regions. Crushed and contralateral control nerve fluorescence were compared for each animal.

[3] = system: sciatic nerves and surrounding non-nerve tissue; assay type: in vivo, mice
From the text: To evaluate the time course of peptide binding to nerve tissue, sciatic nerves and surrounding non-nerve tissue in living mice were imaged before and after intravenous administration of SEQ ID NO:25, Prior to administration of SEQ ID NO: 25 (FIG. 3A), there was little contrast of the nerve (arrowheads) in relation to surrounding non-nerve tissue. Within seconds following intravenous administration of SEQ ID NO:25 (FIG. 3B), the fluorescent injectate could be seen leaking from capillaries (arrows), including capillaries associated with the sciatic nerves (insert). […] Useful contrast between nerve and surrounding muscle begins to develop by 2-3 hours after intravenous injection (FIG. 3E) and lasts several hours (FIG. 3F). […] Serum half-life was calculated at ˜10 minutes.
Female 8 week-old SKH1 mice were anesthetized with ketamine and midazolam and a skin incision was made over the dorsal surface of the hind legs and the sciatic nerves exposed. A preinjection image was taken a dissecting microscope (Lumar Zeiss) and a monochrome camera (Coolsnap). The mice were treated intravenously with […] of SEQ ID NO:25 via, tail vein injection. Sequential fluorescence imaging was then performed as described above: excitation 470/40 nm, emission 525/50 nm, exposure 15 milliseconds-5 seconds. Nerves and adjacent non-nerve tissue were delineated with Image J and relative fluorescence was measured. Quantification of fluorescence was then performed following subtraction of dark current and normalizing to a standard.

sciatic nerves [4] = assay: In vivo nerve labeling with fluorescently labeled peptides (nerve versus adjacent non-nerve tissue); set-up: species or system mice; conditions: for nerve to muscle contrast: FAM-labeled peptides intravenously
Procedure: To test the nerve binding affinity of each of the isolated peptide sequences in vivo, carboxyfluorescein (FAM)-labeled peptides were injected intravenously into living mice. Following a wash-out period, the contrast between nerve and muscle binding of the labeled peptides was evaluated.
Wild-type albino C57BL6 (Jackson Laboratory) or SKH1 (Charles River Laboratories) mice were treated intravenously with 150 nmoles of fluorescently labeled SEQ ID NO:4 via tail vein injection. Following a 2-3 hour wash-out period for SEQ ID NO:25 or 5-6 hours for SEQ ID NO:31, mice were anesthetized with ketamine and midazolam (80 mg/kg intraperitoneally), a skin incision was made over the dorsal surface of the hind, legs and the sciatic nerves exposed bilaterally. […] Nerves and adjacent non-nerve tissue was delineated with Image J and relative fluorescence was measured. Following background subtraction using dark current measurements and measurements of a standard, the ratios of peptide binding to nerve versus adjacent non-nerve tissue were calculated.

[5] = system: human recurrent laryngeal nerve; assay: Human nerve labeling: resected recurrent laryngeal nerves and adjacent muscle incubated with peptide; assay type: binding
Procedure: To evaluate whether or not SEQ ID NO:25 could selectively bind human nerves as compared to non-nerve tissue, freshly resected recurrent laryngeal nerves and adjacent muscle obtained from patients undergoing total laryngectomy for laryngeal cancer were incubated with SEQ ID NO:25. […] This binding pattern is similar to the binding pattern observed in mice.
To evaluate whether or not SEQ ID NO:25 could selectively bind human nerves as compared to non-nerve tissue, freshly resected recurrent laryngeal nerves and adjacent muscle obtained from patients undergoing total laryngectomy for laryngeal cancer were incubated with SEQ ID NO:25 at […] for 15 minutes and washed in saline for 15 minutes each. The nerve and muscle segments were then placed on a black non-fluorescent plate and imaged (Maestro, CRI). The nerve segments were then embedded in Tissue-Tek®, frozen and cryosectioned. 7-10 μm cryosections were then. imaged with standard fluorescence microscopy. Adjacent sections were stained with hematoxylin and eosin (H&E) and imaged.

sciatic nerves [6] = assay: In vivo nerve labeling with fluorescently labeled peptides (nerve versus adjacent non-nerve tissue); set-up: species or system mice
[7] = Peptide biodistribution and metabolism (organ fluorescence, LC-MS and MALDI of urine); assay type: in vivo, mice
Procedure: (§1) To evaluate the biodistribution of the peptide following systemic administration, organs were harvested from mice treated with SEQ ID NO:4 and fluorescence uptake was evaluated. […] To evaluate the metabolism of the peptide as it passed through the renal system, liquid chromatography-mass spectrometry (LC-MS, Agilent) tracing was used to compare urine obtained from mice injected with SEQ ID NO:25 or SEQ ID NO:31 intravenously versus urine from normal mice spiked with the native SEQ ID NO:25 or SEQ ID NO:31. […] Next, matrix-assisted. laser desorption/ionization (MALDI) was used to evaluate the nature of the modification to the peptide as it was metabolized.
as §1, with “NO:25 and” for “NO:25 or”, “ID NO:3” for “ID NO:31”, “ID NO:25.” for “ID NO:25 or SEQ ID NO:31.”, “Next, matrix-assisted” for “Next, matrix-assisted.”

MBP = system: MBP
Procedure: To test the nerve binding affinity of each of the isolated peptide sequences in vitro, dissected nerve tissue was removed from mice and incubated for one hour with 100 nM of each peptide, including a control peptide made up of amino acids that were contained within the various phages selected and sequenced, but in a mixed-up order and designed without repeating any single amino acid except for glycine (which was added to the C-terminus as a flexible linker).

dissected nerve tissue = assay: In vitro nerve binding: dissected nerve tissue incubated with peptide; set-up: species or system mice; conditions: 100 nM peptide, one hour incubation
sciatic nerve conduction = conditions: mouse, in vivo
sciatic nerves [8] = assay: Dose response of peptide binding (nerve to muscle contrast ratio); assay type: in vivo, mice; conditions: 5,000 nmoles, at 2 hours
Procedure: To determine the dose response of peptide binding, the nerve to muscle contrast ratio was measured as a function of the amount of peptide administered (FIG. 4D).
Female 8 week-old SKH1 mice (average weight 25 g) were treated with varying amounts of SEQ ID NO:25 ranging from […]. After a 2 hour washout period, mice were sacrificed and sciatic nerves exposed. Nerves and adjacent non-nerve tissue were delineated with Image 3 and relative fluorescence was measured. Quantification of fluorescence was then performed following subtraction of dark current and normalizing to a standard. For the mice injected with 5,000 nmoles of SEQ ID NO:4, it was noted that background fluorescence was still very high at 2 hours, making the contrast ratio low even though the absolute nerve fluorescence was high. For these mice, the skin incisions were repaired and the mice were allowed to awaken from anesthesia, then at 6 hours following initial SEQ ID NO:4 administration, the mice were sacrificed and the sciatic nerves exposed and analyzed as above.

sciatic nerve [9] = assay: Histology: localization of binding in nerves of thy1-YFP transgenic mice; assay type: in vivo; conditions: mouse, in vivo
From the text: To evaluate the localization of SEQ ID NO:4 binding in nerves, we treated thy1-YFP transgenic mice whose axons are genetically encoded with YFP under a neuron specific promoter (Feng et al, Imaging neuronal subsets in transgenic mice expressing multiple spectral variants of GFP. Neuron, 2000) with SEQ ID NO:31. […] These deeper nerve structures were not easily seen either with brightfield (FIG. 5A, insert) or YFP (FIG. 5B, insert) imaging. To evaluate the localization of SEQ ID NO:4 binding on a cellular level, we imaged cryosections (3-5 μm) of nerves and attached muscles from thy1-YFP animals treated with SEQ ID NO:31.

## CC(=O)N[C@@H](CO)C(=O)N[C@@H](Cc1c[nH]cn1)C(=O)N[C@@H](CO)C(=O)N[C@@H](CC(N)=O)C(=O)N[C@H](C(=O)N[C@@H](CCC(N)=O)C(=O)N[C@H](C(=O)N[C@@H](CC(C)C)C(=O)N[C@@H](C)C(=O)N[C@@H](CCCCN)C(=O)N[C@@H](C)C(=O)N1CCC[C@H]1C(=O)N[C@@H](CCC(=O)O)C(=O)N[C@@H](Cc1c[nH]cn1)C(=O)N[C@H](C(=O)NCC(=O)N[C@@H](CCCCNC(=O)c1ccc2c(c1)C(=O)OC21c2ccc(O)cc2Oc2cc(O)ccc21)C(N)=O)[C@@H](C)O)[C@@H](C)O)[C@@H](C)O [SEQ ID NO:25, acetyl-SHSNTQTLAKAPEHTGK(5,6FAM)-amide] (Ac-SHSNTQTLAKAPEHTGK(5FAM)-NH2)
[1]
  generalized activity, behavior and weight gain versus uninjected/control mice: did not have any apparent changes
Sciatic nerve [2]; 1 day after crush injury
  nerve labeling compared to contralateral control nerve: intact
Sciatic nerve [2]; 3 days after crush injury
  decrease of nerve labeling compared to contralateral control nerve: 40%
Sciatic nerve [2]; 7 days after crush injury
  nerve labeling compared to contralateral control nerve: returned to control levels
Sciatic nerve [2]; immediately following nerve devascularization
  nerve fluorescence compared to contralateral control side: highly diminished
[3]; after intravenous injection
  time at which useful contrast between nerve and surrounding muscle begins to develop: 2 to 3 h
[3]; by 4-5 hours post-injection
  nerve to muscle contrast ratio: 8-10 fold
[3]; by 24 hrs post-injection
  visible contrast between nerve and muscle: all visible contrast between nerve and muscle had disappeared
[3]; mouse, in vivo, iv
  time of highest muscle fluorescence: highest immediately following intravenous administration
  time of peak nerve fluorescence post-administration: around 10 minutes
Sciatic nerves [4]; derivatives of peptide SEQ ID NO: 4
  Nerve contrast: High
[5]; 50 μM for 15 minutes
  binding to human nerves as compared to adjacent muscle: Selective binding
[5]; tissue sections
  pattern of nerve binding in human tissue: connective tissue surrounding the nerve, i.e. epineurium, perineurium, and endoneurium
Sciatic nerves [6]; facial nerve, brachial plexus, sciatic nerve
  systemic survey of nerves labeled: all nerves were brightly labeled
[7]; LC-MS
  native peptide detectable in urine of intravenously injected mice: none
[7]; MALDI
  only fluorescently labeled entity identified in urine: lysine-FAM

## TYTDWLNFWAWP (peptide that specifically binds to a neuron, nerve, or component of either) [SEQ ID NO:2]
Sciatic nerves [4]; living mice, after wash-out
  nerve to muscle contrast: little significant nerve-to muscle contrast
MBP
  increase in binding to MBP crosslinked beads compared to control beads (with no MBP): 10 fold
Dissected nerve tissue
  uptake/binding to dissected nerve tissue compared to no peptide or control peptide: little increase

## NTQTLAKAPEHT (peptide that specifically binds to a neuron, nerve, or component of either) [SEQ ID NO:4]
[1]
  generalized activity, behavior and weight gain versus uninjected/control mice: similar
Sciatic nerve [2]; 3 days following injury
  nerve labeling after injury: diminished
Sciatic nerve [2]; 7 days after crush injury
  nerve labeling compared to contralateral control nerve: recovers
Sciatic nerve [2]; mouse, in vivo
  nerve fluorescence as a function of distance from crush site: does not significantly diminish
Sciatic nerve conduction
  shape of the CMAP curve versus control animals: similar
Sciatic nerves [8]
  nerve to muscle contrast ratio: low
Sciatic nerves [4]; FAM-labeled peptide intravenously, living mice, exposed sciatic nerves, after wash-out
  nerve fluorescence relative to adjacent non-neural tissue: 4 fold
Sciatic nerves [4]; living mice, after wash-out
  nerve to muscle contrast: best nerve to non-nerve contrast
Sciatic nerves [6]; mouse, in vivo
  labeling of nerves in the central nervous system (CNS): no evidence of labeling
Sciatic nerve [9]
  colocalization of labeling with myelin or axons: does not appear to colocalize
Sciatic nerve [9]; listed as SEQ ID NO: 4
  colocalization of labeling with myelin or axons: does not colocalize
[7]; mouse, in vivo
  biodistribution following systemic administration (organ fluorescence uptake): accumulated in the kidney and was excreted into the urine
Dissected nerve tissue
  uptake/binding to dissected nerve tissue compared to no peptide or control peptide: two-fold increase over control to no difference from control
